ChEMBL document CHEMBL1122924 (J Med Chem, 1985)

What was measured:
physchem [1] = conditions: octanol/0.05 M phosphate buffer, pH 7.4
Description: Compound was evaluated for apparent partition coefficient (log P) between octanol and 0.05 M phosphate buffer solution of pH 7.40

physchem [2] = conditions: pH 7.4

Row | Compound | logD (physchem [1]) | half-life (physchem [2]) [h]
1 | CC[C@H](C(=O)OCc1ccccc1C)[C@H](CO)Cc1cncn1C | 2.27 | 2.32
2 | CC[C@H](C(=O)OCc1ccccc1)[C@H](CO)Cc1cncn1C | 1.82 | 0.833
3 | CC[C@H](C(=O)OC(C)c1ccccc1)[C@H](CO)Cc1cncn1C (stereo partly drawn) | 2.08 | 7.92
4 | CC[C@H](C(=O)OCCc1ccccc1)[C@H](CO)Cc1cncn1C | 2.16 | 3.78
5 | CC[C@H](C(=O)OCc1ccc(Cl)cc1)[C@H](CO)Cc1cncn1C | 2.54 | 0.5
6 | CC[C@H](C(=O)OCc1ccc(C)cc1)[C@H](CO)Cc1cncn1C | 2.31 | 1.28

Second part, the molecule after the results:

Row | logD (physchem [1]) | half-life (physchem [2]) [h] | Compound
7 | 1.58 | 13.7 | CCCCOC(=O)[C@@H](CC)[C@H](CO)Cc1cncn1C
8 | 0.58 | 8.5 | CCOC(=O)[C@@H](CC)[C@H](CO)Cc1cncn1C
9 | 2.56 | 18.4 | CCCCCCOC(=O)[C@@H](CC)[C@H](CO)Cc1cncn1C
